This data set in a line: Water solubility. To be noted: in 100 g of water at 25° C., 24 hours, visual evaluation.

Each structure is given as a SMILES string.

From the text: As used herein, the term “solubility” used herein in regard to water solubility includes cases where the sample completely dissolves in deionized water to form a homogeneous mixture, and cases where the sample is completely emulsified. As used herein, “completely” means that none of the sample remains in the deionized water.

Turning to `CCCCC(CC)C(=O)OCC(C)(C)COC(=O)C(CC)CCCC` (centres unmarked) [H-208BRS, Neopentylglycol di(2-ethylhexanoate)], the Water solubility by setting is: (Table 2) under 0.05 g; (Table 3) under 0.05 g.

(Values after patent US9301885B2, “Absorbent article” (UNICHARM CORPORATION, priority 2011, dated 2016).)
